Results as given in US4017607A.
Converted amounts (≈) assume the structure as drawn. Read-outs that look alike come from different tables or passages of the source.

What was measured:
[1] = tested on: Staphylococcus aureus Terajima; test: Minimum inhibitory concentration, serial dilution method; assay type: cell-based; conditions: read-out: Minimum Inhibitory Concentration
[2] = tested on: Corynebacterium diphtheriae Type gravis; test: as above; assay type: cell-based; conditions: Corynebacterium diphtheriae Type gravis; 24 hours, 37° C; read-out: Minimum Inhibitory Concentration
[3] = tested on: Streptococcus hemolyticus Cook; test: as above; assay type: cell-based; conditions: Streptococcus pyogenes; Streptococcus hemolyticus Cook; 24 hours, 37° C; read-out: Minimum Inhibitory Concentration
[4] = tested on: Bacillus anthracis No. 119; test: microbe, parasite or virus in culture; assay type: cell-based; conditions: NO.119, 24 h, read-out: Minimum Inhibitory Concentration
[5] = tested on: Diplococcus pneumoniae Type III; test: Minimum inhibitory concentration, serial dilution method; assay type: cell-based; conditions: Streptococcus pneumoniae; Diplococcus pneumoniae Type III; 24 hours, 37° C; read-out: Minimum Inhibitory Concentration
[6] = tested on: Bacillus subtilis ATCC 6633; test: as above; assay type: cell-based; conditions: read-out: Minimum Inhibitory Concentration
[7] = tested on: Diplococcus pneumoniae Type I; test: as above; assay type: cell-based; conditions: Streptococcus pneumoniae; Diplococcus pneumoniae Type I; 24 hours, 37° C; read-out: Minimum Inhibitory Concentration
[8] = tested on: Bacillus subtilis PCI 219; test: as above; assay type: cell-based; conditions: PCI219; Bacillus subtilis PCI 219; 24 hours, 37° C; read-out: Minimum Inhibitory Concentration
[9] = tested on: Streptococcus hemolyticus D-90; test: as above; assay type: cell-based; conditions: Streptococcus pyogenes, D90; Streptococcus hemolyticus D-90; 24 hours, 37° C; read-out: Minimum Inhibitory Concentration
[10] = tested on: Corynebacterium diphtheriae Type intermedius; test: as above; assay type: cell-based; conditions: Corynebacterium diphtheriae Type intermedius; 24 hours, 37° C; read-out: Minimum Inhibitory Concentration
[11] = tested on: Staphylococcus aureus 209P; test: Minimum inhibitory concentration, serial dilution method, Brain Heart Infusion broth; assay type: cell-based; conditions: read-out: Minimum Inhibitory Concentration
[12] = tested on: Streptococcus faecalis ATCC 8043; test: Minimum inhibitory concentration, serial dilution method; assay type: cell-based; conditions: Enterococcus faecalis, ATCC8043; Streptococcus faecalis ATCC 8043; 24 hours, 37° C; read-out: Minimum Inhibitory Concentration
[13] = tested on: Staphylococcus aureus 209P; conditions: 7th day, 10 mice per group
Sarcina lutea = test: Minimum inhibitory concentration, serial dilution method; assay type: cell-based; conditions: Micrococcus luteus; Sarcina lutea; 24 hours, 37° C; read-out: Minimum Inhibitory Concentration
[14] = tested on: Staphylococcus aureus Smith; test: as above; assay type: cell-based; conditions: read-out: Minimum Inhibitory Concentration
[15] = tested on: Staphylococcus albus 1200A; test: as above; assay type: cell-based; conditions: read-out: Minimum Inhibitory Concentration
[16] = tested on: Streptococcus pyogenes D-58; test: as above; assay type: cell-based; conditions: D58; Streptococcus pyogenes D-58; 24 hours, 37° C; read-out: Minimum Inhibitory Concentration
[17] = Staphylococcus aureus Terajima, 24 hours, 37° C
[18] = ATCC6633, Bacillus subtilis ATCC 6633, 24 hours, 37° C
[19] = Staphylococcus aureus 209P, 24 hours, 37° C
[20] = Staphylococcus aureus Smith, 24 hours, 37° C
[21] = Staphylococcus albus 1200A, 24 hours, 37° C
[22] = Bacillus subtilis, ATCC6633, 24 h
[23] = Staphylococcus aureus, 209P, 24 h

Row | Structure (SMILES) | MIC [1, 17] [µg/mL] | MIC [2] [µg/mL] | MIC [3] [µg/mL] | MIC [4] [µg/mL] | MIC [5] [µg/mL] | MIC [6, 18] [µg/mL] | MIC [7] [µg/mL] | MIC [8] [µg/mL] | MIC [9] [µg/mL] | MIC [10] [µg/mL] | MIC [11, 19] [µg/mL] | MIC [12] [µg/mL] | Rate of surviving mice in each group of mice ([13]; 100 mg/kg oral) | Rate of surviving mice in each group of mice ([13]; 200 mg/kg oral) | MIC (Sarcina lutea) [µg/mL] | MIC [14, 20] [µg/mL] | MIC [15, 21] [µg/mL] | MIC [16] [µg/mL] | further results
1 | CCC(=O)OC1CC(=O)OC(C)CC=CC=CC(OC(C)=O)C(C)CC(CC=O)C(OC2OC(C)C(OC3CC(C)(OC(=O)CC)C(OC(C)=O)C(C)O3)C(N(C)C)C2O)C1OC (stereo not drawn) [Compound No. 1] | 3.12 (≈ 3.47 µM) | 0.19 (≈ 0.212 µM) | 0.19 (≈ 0.212 µM) | 0.78 (≈ 0.869 µM) | 0.09 (≈ 0.1 µM) | 1.56 (≈ 1.74 µM) | 0.09 (≈ 0.1 µM) | 0.78 (≈ 0.869 µM) | 0.78 (≈ 0.869 µM) | 0.19 (≈ 0.212 µM) | 1.56 (≈ 1.74 µM) | 0.78 (≈ 0.869 µM) | 6/10 | 10/10 | 0.09 (≈ 0.1 µM) | 0.39 (≈ 0.434 µM) | 1.56 (≈ 1.74 µM) | 0.19 (≈ 0.212 µM) | –
2 | CCC(=O)OC1CC(=O)OC(C)CC=CC=CC(OC(C)=O)C(C)CC(CC=O)C(OC2OC(C)C(OC3CC(C)(OC(C)=O)C(OC(=O)CC)C(C)O3)C(N(C)C)C2O)C1OC (stereo not drawn) [Compound No. 2] | 3.12 (≈ 3.47 µM) | 0.19 (≈ 0.212 µM) | 0.19 (≈ 0.212 µM) | 0.78 (≈ 0.869 µM) | 0.09 (≈ 0.1 µM) | 1.56 (≈ 1.74 µM) | 0.09 (≈ 0.1 µM) | 0.78 (≈ 0.869 µM) | 0.78 (≈ 0.869 µM) | 0.19 (≈ 0.212 µM) | 1.56 (≈ 1.74 µM) | 0.78 (≈ 0.869 µM) | 8/10 | 10/10 | 0.09 (≈ 0.1 µM) | 0.39 (≈ 0.434 µM) | 1.56 (≈ 1.74 µM) | 0.19 (≈ 0.212 µM) | –
3 | CCC(=O)OC1CC(=O)OC(C)CC=CC=CC(OC(C)=O)C(C)CC(CC=O)C(OC2OC(C)C(OC3CC(C)(OC(=O)CC)C(OC(=O)C(C)C)C(C)O3)C(N(C)C)C2O)C1OC (stereo not drawn) [Compound No. 3] | 3.12 (≈ 3.37 µM) | 0.19 (≈ 0.205 µM) | 1.9 (≈ 2.05 µM) | 1.56 (≈ 1.68 µM) | 0.09 (≈ 0.0972 µM) | – | 0.09 (≈ 0.0972 µM) | 0.78 (≈ 0.842 µM) | 0.78 (≈ 0.842 µM) | 0.19 (≈ 0.205 µM) | – | 0.78 (≈ 0.842 µM) | 4/10 | 10/10 | 0.09 (≈ 0.0972 µM) | 0.39 (≈ 0.421 µM) | – | 0.19 (≈ 0.205 µM) | MIC [6, 22]: 1.56 µg/mL (≈ 1.68 µM); MIC [11, 23]: 1.56 µg/mL (≈ 1.68 µM); MIC ([15]; Staphylococcus, 1200A, 24 h): 1.56 µg/mL (≈ 1.68 µM)
4 | CCC(=O)OC1CC(=O)OC(C)CC=CC=CC(OC(C)=O)C(C)CC(CC=O)C(OC2OC(C)C(OC3CC(C)(OC(=O)CC)C(OC(=O)CC(C)C)C(C)O3)C(N(C)C)C2O)C1OC (stereo not drawn) [Compound No. 4] | – | 0.19 (≈ 0.202 µM) | 0.39 (≈ 0.415 µM) | 1.56 (≈ 1.66 µM) | 0.19 (≈ 0.202 µM) | – | 0.39 (≈ 0.415 µM) | 0.78 (≈ 0.83 µM) | 0.19 (≈ 0.202 µM) | 0.19 (≈ 0.202 µM) | – | 0.78 (≈ 0.83 µM) | 0/10 | 3/10 | 0.09 (≈ 0.0957 µM) | – | – | 0.19 (≈ 0.202 µM) | MIC ([1]; Staphylococcus aureus, 24 h): 1.56 µg/mL (≈ 1.66 µM); MIC [6, 22]: 1.56 µg/mL (≈ 1.66 µM); MIC [11, 23]: 1.56 µg/mL (≈ 1.66 µM); MIC ([14]; Staphylococcus aureus, 24 h): 1.56 µg/mL (≈ 1.66 µM); MIC ([15]; Staphylococcus, 1200A, 24 h): 1.56 µg/mL (≈ 1.66 µM)
5 | CCC(=O)OC1C=CC=CCC(C)OC(=O)CC(OC(=O)CC)C(OC)C(OC2OC(C)C(OC3CC(C)(OC(=O)CC)C(OC(C)=O)C(C)O3)C(N(C)C)C2O)C(CC=O)CC1C (stereo not drawn) [Compound No. 5] | 3.12 (≈ 3.42 µM) | 0.19 (≈ 0.208 µM) | 0.39 (≈ 0.428 µM) | 0.78 (≈ 0.855 µM) | 0.09 (≈ 0.0987 µM) | 1.56 (≈ 1.71 µM) | 0.09 (≈ 0.0987 µM) | 1.56 (≈ 1.71 µM) | 0.78 (≈ 0.855 µM) | 0.19 (≈ 0.208 µM) | 1.56 (≈ 1.71 µM) | 0.78 (≈ 0.855 µM) | 4/10 | 8/10 | 0.09 (≈ 0.0987 µM) | 0.78 (≈ 0.855 µM) | 1.56 (≈ 1.71 µM) | 0.19 (≈ 0.208 µM) | –
6 | CCC(=O)OC1CC(=O)OC(C)CC=CC=CC(OC(C)=O)C(C)CC(CC=O)C(OC2OC(C)C(OC3CC(C)(OC(=O)CC)C(OC(=O)CC)C(C)O3)C(N(C)C)C2O)C1OC (stereo not drawn) [Compound No. 6] | 3.12 (≈ 3.42 µM) | 0.19 (≈ 0.208 µM) | 0.19 (≈ 0.208 µM) | 0.78 (≈ 0.855 µM) | 0.09 (≈ 0.0987 µM) | 1.56 (≈ 1.71 µM) | 0.09 (≈ 0.0987 µM) | 0.78 (≈ 0.855 µM) | 0.78 (≈ 0.855 µM) | 0.19 (≈ 0.208 µM) | 1.56 (≈ 1.71 µM) | 0.78 (≈ 0.855 µM) | 6/10 | 10/10 | 0.09 (≈ 0.0987 µM) | 0.39 (≈ 0.428 µM) | 1.56 (≈ 1.71 µM) | 0.19 (≈ 0.208 µM) | –
7 | CCC(=O)OC1C=CC=CCC(C)OC(=O)CC(OC(=O)CC)C(OC)C(OC2OC(C)C(OC3CC(C)(OC(=O)CC)C(OC(=O)CC)C(C)O3)C(N(C)C)C2O)C(CC=O)CC1C (stereo not drawn) [Compound No. 7] | 1.56 (≈ 1.68 µM) | 0.19 (≈ 0.205 µM) | 0.19 (≈ 0.205 µM) | 0.78 (≈ 0.842 µM) | 0.09 (≈ 0.0972 µM) | 1.56 (≈ 1.68 µM) | 0.19 (≈ 0.205 µM) | 0.78 (≈ 0.842 µM) | 1.56 (≈ 1.68 µM) | 0.19 (≈ 0.205 µM) | 0.78 (≈ 0.842 µM) | 0.78 (≈ 0.842 µM) | 5/10 | 10/10 | 0.09 (≈ 0.0972 µM) | 0.78 (≈ 0.842 µM) | 1.56 (≈ 1.68 µM) | 0.09 (≈ 0.0972 µM) | –
